According to PubChem BioAssay (NCI):
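In this assay, cells in 96-well plates receive the compound at five concentrations for 48 hours. Endpoints are linearly interpolated between the surrounding concentrations. TGI: concentration producing complete growth inhibition.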

Assays:
Assay in all cases: NCI anticancer screen, dose series, 48 h
UO-31 renal = test system: UO-31 renal
HL-60(TB) leukemia = test system: HL-60(TB) leukemia
MDA-N = test system: MDA-N
NCI-H460 lung = test system: NCI-H460 lung
SN12C renal = test system: SN12C renal
BT-549 breast = test system: BT-549 breast
DU-145 prostate = test system: DU-145 prostate
COLO 205 colon = test system: COLO 205 colon
K-562 leukemia = test system: K-562 leukemia
OVCAR-8 ovarian = test system: OVCAR-8 ovarian
NCI-H226 lung = test system: NCI-H226 lung

Row | Structure (SMILES) | TGI (UO-31 renal) [µM] | TGI (HL-60(TB) leukemia) [µM] | TGI (MDA-N) [µM] | TGI (NCI-H460 lung) [µM] | TGI (SN12C renal) [µM] | TGI (BT-549 breast) [µM] | TGI (DU-145 prostate) [µM] | TGI (COLO 205 colon) [µM] | TGI (K-562 leukemia) [µM] | TGI (OVCAR-8 ovarian) [µM] | TGI (NCI-H226 lung) [µM]
1 | CCOP(=O)(OCC)/C(F)=C/c1ccc(F)cc1 | > 100 | > 100 | > 100 | > 100 | > 100 | > 100 | > 100 | > 100 | > 100 | > 100 | –
2 | COC1=C(OC)C(=O)c2cc(C)c(=O)c(C)cc2C1=O | 27.9 | 8.9 | 6.84 | 48.5 | 7.08 | 28.5 | 32.6 | 34.7 | > 24 | 35.7 | 39.3
3 | CCCCCCCC(=O)N1C2CC3CCC2(CS1(=O)=O)C3(C)C (stereo unspecified) | 52.4 | 41.9 | 72 | > 100 | 49.1 | 71.6 | > 100 | 41.2 | – | > 100 | –
4 | CC(=O)C1=C(C)N2C(=NC3=C(CCc4ccccc43)C2c2ccc(Cl)cc2)S1 (stereo unspecified) | > 100 | 10.9 | > 100 | > 100 | > 100 | > 100 | > 100 | > 100 | > 56.2 | > 100 | > 100
5 | O=C1C(CN2CCCC2)CCC1CN1CCCC1 (stereo unspecified) | 32.1 | > 100 | 29.9 | > 100 | > 53 | 31.8 | > 100 | 17.5 | > 33.4 | 37.5 | > 74.4
6 | N#CC(C#N)=CNC(=S)Nc1ccc(S(=O)(=O)Nc2nccs2)cc1 | > 100 | > 100 | > 100 | > 100 | > 100 | > 100 | > 100 | > 100 | – | > 100 | > 100
7 | O=c1cc(O)c1=O | > 100 | > 100 | > 100 | > 100 | > 100 | > 100 | > 100 | > 100 | > 100 | > 100 | > 100
8 | C[C@@H](NC(=O)Nc1cccc(C(=O)Nc2cc(C(C)(C)C)ccc2C(=O)O)n1)c1ccccc1 | > 100 | > 100 | > 100 | > 100 | > 100 | > 100 | > 100 | 60.6 | > 100 | > 100 | > 100
9 | c1ccc2sc(C3(N4CCCCCC4)CCCCC3)cc2c1 | 56.2 | 40.9 | 97.6 | 45.1 | 43.7 | 61.2 | > 100 | 30 | 33.1 | > 100 | 42.9
10 | CC(=O)OCC1OC(NC(=S)Nn2c(-c3ccccc3)nc3ccccc3c2=O)C(OC(C)=O)C(OC(C)=O)C1OC(C)=O (stereo unspecified) | > 100 | > 100 | > 100 | > 100 | > 100 | > 100 | > 100 | > 100 | > 100 | > 100 | > 100
11 | CCOC(=O)c1sc(N)nc1N1CCCC1 | > 100 | > 100 | > 100 | > 100 | > 100 | > 100 | > 100 | > 100 | > 100 | > 100 | > 100
12 | COc1nc2c(c(=O)[nH]1)N=C(c1ccc([N+](=O)[O-])cc1)CC(c1ccccc1)N2 (stereo unspecified) | > 100 | 46.6 | > 100 | > 100 | > 100 | > 100 | > 100 | > 100 | > 100 | > 100 | > 100
13 | COc1ccc2nc3cc(Cl)ccc3c(NCCCN(C)CCCNc3ccc4ncn5c6ccccc6c(=O)c3c45)c2c1 | 7.28 | 2.2 | 4.77 | 0.504 | 5.28 | 4.59 | 7.19 | 3.66 | > 25 | 8.52 | 1.98
14 | O=c1oc2cc(O)ccc2c(O)c1C(c1ccc(/C=C/c2ccccc2)cc1)c1c(O)c2ccc(O)cc2oc1=O | > 100 | 69.6 | > 100 | > 100 | > 100 | > 100 | > 100 | > 100 | > 100 | > 100 | > 100
15 | FC(F)(F)c1ccc2c(c1)nc(Cc1ccc(Cl)cc1)n2CC1CCCN2CCCCC12 (stereo unspecified) | 0.0985 | 6.13 | 13.7 | 20.7 | 21.4 | 23.7 | 21.6 | 16 | 19.4 | 23.4 | 24.2
16 | COc1ccc(N(c2ccc(C#N)cc2)c2ccc(C#N)cc2)cc1 | > 100 | > 100 | > 100 | > 100 | > 100 | > 100 | > 100 | > 100 | – | > 100 | > 100
17 | NS(=O)(=O)c1ccc(NCc2cccc3c(=O)c4ccc(Cl)cc4oc23)cc1 | > 93.2 | 9.47 | > 80.2 | – | > 100 | > 96.7 | > 100 | > 100 | > 100 | > 67.2 | > 100
